The source of these data is PMC8194028, “Engineering and characterization of human β-defensin-3 and its analogues and microcin J25 peptides against Mannheimia haemolytica and bovine neutrophils” (Veterinary Research, 2021).

Where two headings read alike, the source gives them in different places. Positions of bridges follow the written chain, without caps; N, C: chain ends. Residues, ends and D or L forms follow the SMILES beside them. No end group written: not given here.

A word on the MBC: it is the smallest concentration meeting the test's criterion for killing.

For one data set, the system named is M. haemolytica. In words: Inhibition of visible growth (MIC assay, optical density method). Format: cell-based, Mannheimia haemolytica. Conditions: 10 000–25 000 bacteria/well; compared with control wells. On the procedure:
(§1) Wild-type HBD3, its analogues, and MccJ25 were tested against M. haemolytica-A1 using optical density method and colony count assay. Briefly, an aliquot (5 µL) from bacteria suspension stored at −80 °C was put in 5 mL BHI broth at 37 °C for 18 h. An aliquot (10 µL) from this overnight culture was added to fresh BHI broth and incubated at 37 °C for a further 5 h to obtain mid-log phase bacteria. The culture was then centrifuged for 10 min at 800 g at 4 °C. The supernatant was discarded and the bacterial pellet was resuspended in cold, sterile sodium phosphate buffer (SPB) and washed again at 800g for 10 min at 4 °C. The pellet was resuspended in 5 mL SPB. To calculate the number of CFU/mL in the 5 h culture, six successive tenfold dilutions were made. From the last dilution 100 µL was plated in duplicate on petri dishes containing BHI agar and incubated for 24 h. After 24 h the colonies were counted in the two petri dishes and then averaged. Total number of colonies was the average number of colonies multiplied by the dilution factor.
All assays were carried out in sterile 96-well polypropylene flat-bottomed plates using a broth microdilution method. Two-fold serial dilutions of peptide were made in SPB, and 50 µL of each concentration of peptide was added to the wells of the assay plate. […]

For data set [1] the following is noted: cited from earlier work. An excerpt: In this context, antimicrobial peptides (AMPs) have received significant attention as alternatives to antibiotics. […] Recent work by the […] laboratory has shown that treatment with naturally expressed Tracheal Antimicrobial Peptide, a defensin, neither killed M. haemolytica nor prevented the development of lung disease. Coupled with the fact that M. haemolytica, in normal condition, is prevented from e ...

Data set [2] deals with bovine neutrophils. The data set is described as follows: Chemotaxis assay, 48-well Boyden chamber. Type of data set: cell-based, cattle. The conditions noted are these: peptide 50.0 μg/mL in lower well; 20 min at 37 °C; three independent experiments; ANOVA with Dunnett, P < 0.05. On the procedure:
(§2) Neutrophils were isolated from cattle using established methods and approved by the University of Saskatchewan’s Committee on Animal Care. For each individual animal, blood was pooled into 50 mL tubes and diluted with an equal volume of PBS then 12.5 mL of the diluted blood was layered over 10 mL of Ficoll Paque PLUS (Sigma-Aldrich, St. Louis, USA) while taking care to preserve the interface between the two liquids. Following centrifugation at 400 g for 30 min at 20 °C with the brake turned off, the lymphocyte layer was discarded along with Ficoll and plasma. The pellet was washed in 20 mL PBS with centrifugation at 500 g with low brake for 10 min. The supernatant was discarded and the pellet was suspended in equal volume of sterile water and gently mixed for 20 s followed by addition of equal volume of 1.8% NaCl to restore tonicity. The mixture was centrifuged at 500 g for 10 min and followed by another washing and centrifugation at 4 °C. The resulting neutrophil pellet was resuspended in PBS. Bovine neutrophils, collected in the above manner had more than 92% purity, and their viability was greater than 95% based on Trypan blue exclusion assay. Therefore, we use the term neutrophils in the manuscript.
We used fMLP ([…]) as the chemoattractant. […] The cells within the filter pores were then counted in five random fields under light microscope at 40×. […]

Data set [3] deals with 28 species and 55 strains of Gram-positive cocci and Gram-negative fermentative and non-fermentative rods. Details: method as in PMID 12709350. Conditions: final bacterial inoculum 10^4 to 10^5/mL; cited from earlier work.
The subject of data set [4] is bovine neutrophils. The data set is described as follows: Migration inhibition assay (neutrophil migration towards fMLP). Format: cell-based, cattle. Conditions: neutrophils with 50.0 μg/mL peptide in upper well; fMLP 114 nM in lower well; 20 min at 37 °C; three independent experiments. How it is done: as §2
Since peptides can be immunomodulatory, migration inhibition was carried out to determine if the peptides inhibit neutrophil migration. […]

The test system of another data set is M. haemolytica-A1. Format: cell-based, Mannheimia haemolytica. Conditions: for LD50 / MBC: 2 h; for Sensitivity of M. haemolytica to the peptide (class by MBC): MBC assay, classification of ref 28; for No. of CFU: final inoculum 5 × 10^5 cfu/mL, one of three experiments. On the procedure:
as §1
All assays were carried out in sterile 96-well polypropylene flat-bottomed plates using a broth microdilution method. Two-fold serial dilutions of peptide were made in SPB, and 50 µL of each concentration of peptide was added to the wells of the assay plate. […] Positive control wells contained 50 µL of the bacteria with 50 µL of 64 µg/mL ampicillin and negative control wells contained 50 µL of SPB and 50 µL bacterial suspension. Sterility control well contained 100 µL BHI broth to test and ensure that broth was not contaminated.
The plates were sealed with aluminum foil and were incubated at 37 °C for 2 h then 50 µL of the contents of the well were pipetted on BHI agar plates and incubated for 24 h. The bactericidal activity was expressed as the MBC which is the concentration at which 99.9% of the colonies are killed and the Lethal dose 50 (LD50) at which 50% or more bacteria are killed. All experiments were run in triplicates.
Peptides HBD3, its analogues and Mccj25 were assessed for Minimum bactericidal concentration (MBC). […] All the peptides have shown intermediate to potent killing activity towards M. haemolytica (Figures 2, 3). […] However, some published studies have taken final inoculum in the range of 10^4–10^5 cfu/mL [28].

The mark [5] stands for this setting: peptide 0.8 μg/mL, well row A (duplicate 1).
[6] abbreviates: peptide 0.8 μg/mL, well row B (duplicate 2).
Where [7] appears, read: peptide 1.6 μg/mL, well row A (duplicate 1).
The mark [8] stands for this setting: peptide 1.6 μg/mL, well row B (duplicate 2).
[9] abbreviates: peptide 3.1 μg/mL, well row A (duplicate 1).
The mark [10] stands for this setting: peptide 3.1 μg/mL, well row B (duplicate 2).
[11] abbreviates: peptide 12.5 μg/mL, well row A (duplicate 1).
[12] abbreviates: peptide 12.5 μg/mL, well row B (duplicate 2).
Where [13] appears, read: peptide 25.0 μg/mL, well row A (duplicate 1).
Where [14] appears, read: peptide 25.0 μg/mL, well row B (duplicate 2).
Setting [15] is: peptide 50.0 μg/mL, well row A (duplicate 1).
Setting [16] is: peptide 50.0 μg/mL, well row B (duplicate 2).
Where [17] appears, read: peptide 100.0 μg/mL, well row A (duplicate 1), 2 h 37 °C, 50 μL plated, 24 h.
The mark [18] stands for this setting: peptide 100.0 μg/mL, well row B (duplicate 2).

Regarding `CC1(C)S[C@@H]2[C@H](NC(=O)[C@H](N)c3ccccc3)C(=O)N2[C@H]1C(=O)O` [Ampicillin], the “Inhibition of visible growth of M. haemolytica” value in the data set on M. haemolytica is listed as “no growth”.

Consider `CC[C@H](C)[C@H](NC(=O)CNC(=O)[C@@H](NC(=O)[C@H](Cc1ccccc1)NC(=O)[C@H](Cc1ccc(O)cc1)NC(=O)[C@@H]1CCC(=O)NCC(=O)NCC(=O)N[C@@H](C)C(=O)NCC(=O)N[C@@H](Cc2cnc[nH]2)C(=O)N[C@@H](C(C)C)C(=O)N2CCC[C@H]2C(=O)N1)C(C)C)C(=O)NCC(=O)N[C@H](C(=O)N1CCC[C@H]1C(=O)N[C@H](C(=O)N[C@@H](CO)C(=O)N[C@@H](Cc1ccccc1)C(=O)N[C@@H](Cc1ccc(O)cc1)C(=O)NCC(=O)O)[C@@H](C)CC)[C@@H](C)O` [MccJ25, Microcin J25] (GGAGHVPEYFVGIGTPISFYG-OH; lactam N-8), for which the “Stability in the presence of many proteolytic enzymes” value in data set [1] is “stable”.

With “GIINTLQKYYCRVRGGRCAVLSCLPKEEQIGKCSTRGRKCCRRKK (disulfide 11-40, 18-33, 23-41 (inferred)) [HBD3, Human β-Defensin 3, reference compound]”, the “Chemotaxis of bovine neutrophils towards peptide (migrated neutrophils vs PBS)” value with bovine neutrophils [2] is listed as “chemotactic”. Further, the “MBC, three strains out of 55 tested (intermediate susceptibility)” value in data set [3] was 50.0 µg/mL. The “Effect of peptide on neutrophil migration towards fMLP” value in the data set with bovine neutrophils [4] is reported as “none of the peptides inhibited migration”. For the same molecule, in the data set on M. haemolytica-A1, the LD50 worked out at 6.3 µg/mL. Further, the MBC against M. haemolytica-A1 was 50.0 µg/mL. Also, the “Sensitivity of M. haemolytica to the peptide (class by MBC)” value in the data set with M. haemolytica-A1 is on record as “intermediately sensitive (as intermediately sensitive if MBC levels were 10–100 μg/mL)”. Besides, the “No. of CFU” value in the data set on M. haemolytica-A1 (setting [5]), in the data set with M. haemolytica-A1 (setting [6]), in the data set with M. haemolytica-A1 (setting [7]), in the data set on M. haemolytica-A1 (setting [8]), with M. haemolytica-A1 (setting [9]) and with M. haemolytica-A1 (setting [10]) was over 400 CFU in each case. Also, the “No. of CFU” value is on record as 210 CFU in the data set on M. haemolytica-A1 (peptide 6.3 μg/mL, well row A (duplicate 1)); 390 CFU in the data set with M. haemolytica-A1 (peptide 6.3 μg/mL, well row B (duplicate 2)); 42 CFU with M. haemolytica-A1 (setting [11]); 101 CFU in the data set with M. haemolytica-A1 (setting [12]); 31 CFU in the data set on M. haemolytica-A1 (setting [13]); 9 CFU with M. haemolytica-A1 (setting [14]). Besides, the “No. of CFU” value in the data set on M. haemolytica-A1 (setting [15]), in the data set with M. haemolytica-A1 (setting [16]), in the data set on M. haemolytica-A1 (setting [17]) and in the data set with M. haemolytica-A1 (setting [18]) was 0 CFU in each case.

Turning to “KEEQIGKVSTRGRKVVRRKK-OH [HBD3 20AA analogue]”, the “Chemotaxis of bovine neutrophils towards peptide (migrated neutrophils vs PBS)” value with bovine neutrophils [2] is recorded as “chemotactic”. Also, the “Effect of peptide on neutrophil migration towards fMLP” value with bovine neutrophils [4] is “none of the peptides inhibited migration”. This molecule also had an LD50 in the data set on M. haemolytica-A1 of 3.1 µg/mL. In the data set with M. haemolytica-A1, this molecule had an MBC of 50.0 µg/mL. In addition, the “Sensitivity of M. haemolytica to the peptide (class by MBC)” value in the data set with M. haemolytica-A1 is reported as “intermediately sensitive (as intermediately sensitive if MBC levels were 10–100 μg/mL)”. The “No. of CFU” value is listed as over 400 CFU in the data set with M. haemolytica-A1 (setting [5]); over 400 CFU with M. haemolytica-A1 (setting [6]); over 400 CFU with M. haemolytica-A1 (setting [7]); over 400 CFU with M. haemolytica-A1 (setting [8]); 376 CFU in the data set with M. haemolytica-A1 (setting [9]); over 400 CFU in the data set on M. haemolytica-A1 (setting [10]). The “No. of CFU” value is on record as 240 CFU in the data set with M. haemolytica-A1 (setting [11]); 170 CFU in the data set on M. haemolytica-A1 (setting [12]); 128 CFU with M. haemolytica-A1 (setting [13]); 151 CFU in the data set with M. haemolytica-A1 (setting [14]); 15 CFU with M. haemolytica-A1 (setting [15]); 4 CFU in the data set on M. haemolytica-A1 (setting [16]). The figures for the “No. of CFU” value in the data set on M. haemolytica-A1 (setting [17]) and with M. haemolytica-A1 (setting [18]) were 4 CFU and 1 CFU, respectively.
